Several values for one entry are separate records, joined by “and”; a condition that tells them apart may be missing. Equal entries are not always repeated.
How the values were obtained:
NCI-H295R = assay: area under concentration-response curve (viability) (AUC (a.u.)); higher = less active; conditions: 48 h
Summary of the method: (§1)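 Three adrenocortical carcinoma cell lines in 1,536-well plates received 23 nL of each library compound at 11 concentrations and were read with CellTiter-Glo after 48 h, with 15 minutes at room temperature before measuring luminescence. Vehicle and empty-well controls served for per-plate normalisation. AC50 and area under the curve were extracted from fitted concentration-response curves, discarding all curve classes other than inhibitory or non-responding.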

CU-ACC1 = assay: as above; conditions: 48 h
Summary of the method: as §1

| Structure (SMILES) | area under concentration-response curve (NCI-H295R) | area under concentration-response curve (CU-ACC1) |
| --- | --- | --- |
| Cc1c(C)n(Cc2ccc(-c3ccccc3C(=O)O)cc2)c2ccc(C(=O)N[C@@H](C)c3ccc([N+](=O)[O-])cc3)cc12 | 402 | – |
| OC[C@H]1O[C@H]([C@H](O)[C@@H](O)[C@@H]1O)C2=C(O)C=CC3=C2O/C=C(C3=O)/C4=CC=C(O)C=C4 | 540 | – |
| OC1=CC=C(C=C1)\C2=C\C(=O)C3=C(O2)C=C(O)C=C3O | 389 | – |
| O=C(O)CCCCC(CCSCc1ccccc1)SCc1ccccc1 (stereo not given) | 589 | – |
| CCC[S+](=O)([O-])Nc1ccc(F)c(C(=O)c2c[nH]c3ncc(-c4ccc(Cl)cc4)cc23)c1F | 556 | – |
| C[C@]12CC[C@H]3[C@@H](CC(=C)\C4=C\C(=O)\C=C/[C@]34C)[C@@H]1CCC2=O | – | 320 |
| OC[C@H]1O[C@@H](Oc2cc(O)cc(/C=C/c3ccc(O)cc3)c2)[C@H](O)[C@@H](O)[C@@H]1O | 579 | – |
| CC1(C)CCC2(CC1)N[C@@H](C(=O)N[C@@H]1CC[C@@H](C(N)=O)OC1)[C@H](c1ccnc(Cl)c1F)[C@]21C(=O)Nc2cc(Cl)ccc21 | – | 501 |
| O=C(O)c1ccc(-c2c[nH]c3ncc(-c4ccccc4)cc23)cc1C1CCCC1 | 501 | – |
| Cc1cc(C)cc(NC(=O)Cc2ccc(OC(C)(C)C(=O)O)cc2)c1 | – | 504 |
| CNC(=O)[C@H]1O[C@@H](n2cnc3c(NCc4cccc(I)c4)nc(Cl)nc32)[C@H](O)[C@@H]1O | 366 | – |
| COc1cc2c(Oc3ccc4[nH]c(C)cc4c3F)ccnc2cc1OCC1(N)CC1 | – | 534 |
| Clc1ccc(COC(Cn2ccnc2)c2ccc(Cl)cc2Cl)cc1 (stereo not given) | – | 433 |
| O=C(NCCCCN1CCOCC1)c1cc2ccccc2o1 | – | 461 |
| Cc1ncc(Cl)cc1NCc1ccc(C(=O)NC(CC2CCCC2)C(=O)NC2CC2)s1 (stereo not given) | – | 467 |
| FC1=CC=C(CN2\C=C/C=C(/C(=O)N[C@@H](COC3=CC4=C(NC(=O)N4)C=C3)C5=CC=CC=C5)C2=O)C=C1F | – | 546 |
| COc1ccc(-c2cnc3c(-c4cccc5ncccc45)cnn3c2)cc1 | 595 | – |
| OCCN(CCO)c1nc(N2CCCCC2)c2nc(N(CCO)CCO)nc(N3CCCCC3)c2n1 | – | 478 |
| C[C@@H]1CCN(C(=O)CC#N)C[C@@H]1N(C)c1ncnc2[nH]ccc12 | – | 305 |
| CCOC(=O)C(C#N)C\1C2=CC(=CC=C2O\C(=C1C(=O)OCC)N)Br (stereo not given) | 569 | – |
| CC\12CCC(=O)\C=C1CCC3C2CCC4(C)C3CCC4(O)C#C (stereo not given) | 440 | – |
| CCCCCNC(=O)N1CCC(CN(Cc2ccc(Cl)cc2)Cc2ccc([N+](=O)[O-])s2)C1 (stereo not given) | – | 509 |
| COc1ccc(N(C(=O)Oc2c(C)cccc2C)c2ccnc(Nc3ccc(N4CCN(C)CC4)cc3)n2)c(OC)c1 | 545 | – |
| CCc1c(O)cc(O)c(C(=O)c2ccc(OCCN3CCOCC3)c(OC)c2)c1CC(=O)N(CCOC)CCOC | – | 216 |
| NC(=O)c1cccc2cn(-c3ccc([C@@H]4CCCNC4)cc3)nc12 | – | 444 |

| Structure (SMILES) | area under concentration-response curve (NCI-H295R) | area under concentration-response curve (CU-ACC1) |
| --- | --- | --- |
| CNCc1ccc(-c2cc(-c3nc(-c4ccc([S+](=O)([O-])C(C)C)cc4)cnc3N)on2)cc1 | 413 | – |
| CCN1CCN(C(=O)N[C@@H](C(=O)N[C@H]2[C@H]3SC\C(=C(/N3C2=O)C(O)=O)CSC4=NN=N[N]4C)C5=CC=C(O)C=C5)C(=O)C1=O | 269 | – |
| CCN(CCO)CCCC(C)Nc1ccnc2cc(Cl)ccc12 (stereo not given) | 368 | – |
| OC[C@H]1O[C@H]([C@@H](F)[C@@H]1O)N2\C=C/C(=O)NC2=O | – | 370 |
| CO[C@@]12[C@H](COC(N)=O)C/3=C(N1C[C@@H]4N[C@H]24)/C(=O)/C(=C(N)\C3=O)C | – | 378 |
| CC(C)[S+](=O)([O-])c1ccc2nccc(Nc3ccc4scnc4c3)c2c1 | 491 | – |
| O=C(/C=C/N1C[C@H]2C[C@@H]1CN2c1ccccn1)c1ccccc1O | – | 306 |
| NC(=O)c1ncn([C@@H]2O[C@H](CO)[C@@H](O)[C@H]2O)c1O | 401 and 302 | – |
| OC1=CC(=C(C=C1)\C2=C(O)\C(=O)C3=C(O2)C=C(O)C=C3O)O | 591 | – |
| C[C@@H]1C(=O)O[C@H]2CC34[C@H]5C[C@@H](C(C)(C)C)C36[C@@H](OC(=O)[C@@H]6O)O[C@@]4(C(=O)O5)[C@]21O (stereo not given in full) | 21.9 | – |
| O=C(O)Cc1cccc(OCCCN(Cc2cccc(C(F)(F)F)c2Cl)CC(c2ccccc2)c2ccccc2)c1 | – | 535 |
| C=CCN1C[C@H](C(=O)N(CCCN(C)C)C(=O)NCC)CC2c3cccc4[nH]cc(c34)C[C@H]21 (stereo not given in full) | 545 | – |
| O=C(O)CCCc1ccc(N(CCCl)CCCl)cc1 | – | 300 |
| CN1\N=N/C2=C(N=C[N]2C1=O)C(N)=O | 581 | – |
| COc1cccc(OCCCN)c1-c1cc(Nc2cnc(C#N)cn2)n[nH]1 | – | 347 |
| CCOC(=O)\C1=C(/C)N\C2=C(C1C3=CC=C(C=C3)C4=CC=CC=C4)\C(=O)CC(C)(C)C2 (stereo not given) | – | 552 |
| Cc1ccc(NC(=O)c2ccc(CN3CC[C@H](N(C)C)C3)c(C(F)(F)F)c2)cc1Nc1nccc(-c2cncnc2)n1 | – | 549 |
| CN(C)Cc1cccc(N/C(=C2\C(=O)Nc3cc(C(=O)N(C)C)ccc32)c2ccccc2)c1 | 558 | – |
| Cc1ccc(-c2ncc(Cl)cc2-c2ccc([S+](C)(=O)[O-])cc2)cn1 | – | 366 |
| O=c1[nH]c2ccccc2n1CCCN1CCC(n2c(=O)[nH]c3cc(Cl)ccc32)CC1 | 539 | – |
| OC1=CC=C(C=C1)\C2=C\OC3=C(C=CC(=C3)O)C2=O | 565 | – |
| CCCCN(CCCC)C(=O)CN1C[C@H](c2ccc3c(c2)OCO3)[C@@H](C(=O)O)[C@@H]1c1ccc(OC)cc1 | – | 460 |
| O=C(O)CCCCCC(=O)NN=C1CCCC1 | 548 | – |
| CCc1cc(C(N)=S)ccn1 | 552 | – |
| CCc1cc2c(cc1N1CCC(N3CCOCC3)CC1)C(C)(C)c1[nH]c3cc(C#N)ccc3c1C2=O | – | 416 |

| Structure (SMILES) | area under concentration-response curve (NCI-H295R) | area under concentration-response curve (CU-ACC1) |
| --- | --- | --- |
| O=C(O)CCCc1c[nH]c2ccccc12 | 400 | – |
| CC[C@H]1OC(=O)[C@H](C)[C@@H](O[C@H]2C[C@@](C)(OC)[C@@H](O)[C@H](C)O2)[C@H](C)[C@@H](O[C@@H]2O[C@H](C)C[C@H](N(C)C)[C@H]2O)[C@](C)(O)C[C@@H](C)CN(C)[C@H](C)[C@@H](O)[C@]1(C)O | – | 310 |
| C/C=C(/C(=C/C)c1ccc(O)cc1)c1ccc(O)cc1 | 366 | – |
| Clc1ccc(Nc2nnc(Cc3ccncc3)c3ccccc23)cc1 | 295 | – |
| NC(=O)c1c(OCc2c(F)cc(Br)cc2F)nsc1NC(=O)NCCCCN1CCCC1 | – | 395 |
| CCCCCCCN(CC)CCCC(O)c1ccc(N[S+](C)(=O)[O-])cc1 (stereo not given) | – | 398 |
| CC(C)(O)c1coc([S+](=O)([O-])NC(=O)Nc2c3c(cc4c2CCC4)CCC3)c1 | 555 | – |
| COc1ncc(-c2ccc3c(Nc4cc(Oc5cc(F)cc(F)c5)cc(C(=O)O)c4)c([S+](=O)([O-])NC4CC4)cnc3c2)c(OC)n1 | 516 | – |
| COc1cc2c(cc1O)CC[C@@H]1[C@@H]2CC[C@]2(C)[C@@H](O)CC[C@@H]12 | 383 | – |
| COc1ccc(Cc2ccc(NC(N)=O)cc2)cc1-c1cccc(Cl)c1 | – | 480 |
| CC(=O)c1c(O)c(C)c(O)c(Cc2c(O)c3c(c(C(=O)/C=C/c4ccccc4)c2O)OC(C)(C)C=C3)c1O | – | 323 |
| CCOC(=O)c1ccc(C#Cc2ccc3c(c2)C(C)(C)CCS3)nc1 | – | 505 |
| CCOC(=O)c1ncn2c1CN(C)C(=O)c1cc(F)ccc1-2 | 532 | – |
| O=C(O)C[C@H]1CCc2c1[nH]c1ccc(OCc3ccc(C4CCCC4)c(C(F)(F)F)c3)cc21 | – | 506 |
| CCCN[C@H]1CCc2nc(N)sc2C1 | 566 | – |
| NC\1=N\C(=O)N(\C=C1)[C@H]\2[C@H](O)[C@H](O)C(=C2F)\CO | – | 336 |
| O=P1(NCCCl)OCCCN1CCCl (stereo not given) | 553 | – |
| CC(C)Oc1ccc2c(=O)c(-c3ccccc3)coc2c1 | 559 | – |
| COc1ccc2cc(-c3[nH]c(-c4ccc([S+](C)[O-])cc4)nc3-c3ccncc3)ccc2c1 (stereo not given) | – | 472 |
| COc1ccc([S+](=O)([O-])Nc2cc(-c3c(O)ccc4ccccc34)c(O)c3ccccc23)cc1 | – | 482 |
| O=[S+]([O-])(O)c1ccc2cc(/N=N/c3cc([S+](=O)([O-])O)c4cccnc4c3O)ccc2c1 | – | 500 |
| O=C(CCc1ccc(O)cc1)c1c(O)cc(O)cc1O[C@@H]1O[C@H](CO)[C@@H](O)[C@H](O)[C@H]1O | 242 | – |
| O=[S+]([O-])(CC1CS1)c1ccc(Oc2ccccc2)cc1 (stereo not given) | 542 | – |
| CCCN(CCC)C(=O)C\1=C\C2=CC=C(C=C2\N=C(N)/C1)C3=CC=C(C=C3)C(=O)N4CCCC4 | 581 | – |
| CC1OC(OC/2=C(/OC3=C(C(=CC(=C3)O)O)C2=O)C4=CC=C(O)C=C4)C(O)C(OC(C)=O)C1OC(C)=O (stereo not given) | 289 | – |
